Assay results reported in patent US11999727B2 (Tango Therapeutics, Inc., priority 2020, dated 2024).

Legend:
PRMT5 [1] = molecular target: T1, PRMT5 (Homo sapiens, UniProt O14744); experiment: PRMT5 biochemical IC50 assay with MTA as cofactor; conditions: PRMT5, MTA as cofactor; read-out: MTA IC50
T1 construct: purchased Viva (custom protein)

[2] = system: HAP1 MTAP-deleted cell line; experiment: SDMA in-cell western assay, HAP1 MTAP-deleted; assay type: cell-based; conditions: for IC50: Homo sapiens, HAP1, SDMA in-cell western, HAP1 MTAP-deleted, read-out: HAP 1 MTAP deleted IC50; for MTAP intact/deleted ratio: IC50 ratio HAP1 MTAP-intact / HAP1 MTAP-deleted, SDMA in-cell western
Summary of the method: (§1)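 IC50 values come from SDMA signal quantified by in-cell western in two HAP1 lines, one with native MTAP levels and one lacking MTAP.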

[3] = system: HAP1 MTAP-deleted cell line; experiment: Viability assay, MTAP-deleted cell line; assay type: cell-based; conditions: Homo sapiens, HAP1, viability, HAP1 MTAP-deleted cell line; read-out: HAP1 MTAP deleted viability
Description: Table 1 additionally indicates IC50 values in a viability assay for the MTAP-deleted cell line (column 10), indicating the effect of treatment with compound on cell survival.

PRMT5 [4] = molecular target: T1, PRMT5; experiment: PRMT5 biochemical IC50 assay with no cofactor; conditions: PRMT5, no cofactor; read-out: No Cofactor/ rel IC50
Description: Table 1 indicates IC50 values (μM) against PRMT5 for exemplary compounds in the presence of SAM as cofactor, with no cofactor, and with MTA as cofactor, respectively (columns 4-6). […] Ki values can be calculated from the IC50 values as described in the Examples section. As detailed in the Examples section, for the assay performed in the presence of SAM, IC50=Ki×1.5 (Ki=IC50/1.5).

PRMT5 [5] = molecular target: T1, PRMT5; experiment: PRMT5 biochemical IC50 assay with SAM as cofactor; conditions: PRMT5, SAM as cofactor; read-out: SAM IC50
[6] = system: HAP1 MTAP-intact cell line; experiment: SDMA in-cell western assay, HAP1 MTAP-intact; assay type: cell-based; conditions: Homo sapiens, HAP1, SDMA in-cell western, HAP1 MTAP-intact; read-out: MTAP HAP1 intact IC50
Summary of the method: as §1

T1 sequence (O14744 whole entry): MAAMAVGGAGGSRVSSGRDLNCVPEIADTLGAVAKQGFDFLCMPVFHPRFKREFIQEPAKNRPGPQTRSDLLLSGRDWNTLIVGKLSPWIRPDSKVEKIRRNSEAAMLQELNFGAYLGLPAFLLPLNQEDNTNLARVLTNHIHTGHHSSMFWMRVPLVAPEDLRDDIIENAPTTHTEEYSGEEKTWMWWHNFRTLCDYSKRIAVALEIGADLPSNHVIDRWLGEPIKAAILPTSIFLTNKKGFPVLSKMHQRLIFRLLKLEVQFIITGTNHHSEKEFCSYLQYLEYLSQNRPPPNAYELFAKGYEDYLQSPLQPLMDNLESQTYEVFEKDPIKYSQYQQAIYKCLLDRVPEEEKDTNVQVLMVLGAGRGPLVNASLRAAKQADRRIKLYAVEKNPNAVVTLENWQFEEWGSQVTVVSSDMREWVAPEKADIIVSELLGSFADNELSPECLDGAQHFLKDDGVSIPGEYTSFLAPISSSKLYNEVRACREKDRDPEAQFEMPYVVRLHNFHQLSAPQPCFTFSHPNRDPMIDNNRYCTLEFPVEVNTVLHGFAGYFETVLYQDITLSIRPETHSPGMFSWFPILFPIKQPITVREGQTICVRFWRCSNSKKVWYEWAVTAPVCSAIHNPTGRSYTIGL
T1 sequence (Q9BQA1 whole entry partner): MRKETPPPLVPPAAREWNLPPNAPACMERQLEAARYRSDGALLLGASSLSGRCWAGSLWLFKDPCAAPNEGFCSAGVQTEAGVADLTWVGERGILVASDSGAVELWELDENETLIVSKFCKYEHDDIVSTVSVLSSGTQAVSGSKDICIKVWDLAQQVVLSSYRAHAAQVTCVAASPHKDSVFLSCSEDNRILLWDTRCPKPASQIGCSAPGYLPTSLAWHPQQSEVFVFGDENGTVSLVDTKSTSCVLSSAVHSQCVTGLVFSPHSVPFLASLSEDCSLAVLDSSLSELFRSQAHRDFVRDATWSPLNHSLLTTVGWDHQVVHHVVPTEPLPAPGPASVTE

IC50 (PRMT5 [1])	IC50 [2]	IC50 (PRMT5 [4])	IC50 (PRMT5 [5])	IC50 [6]	Structure (SMILES)	MTAP intact/deleted ratio [2]	IC50 [3]
< 50 nM	< 100 nM	< 50 nM	50 to 500 nM	100 to 1000 nM	CCc1cc(NC(=O)C(=O)N2C[C@@H](C)CC[C@@H]2c2ccc3nn(C4CN(C)C4)cc3c2)cnc1N (racemic) [Compound 1239, N-(6-Amino-5-ethyl-3-pyridyl)-2-oxo-2-[rac-(2R,5S)-5-methyl-2-[2-(1-methylazetidin-3-yl)indazol-5-yl]-1-piperidyl]acetamide]	A (an IC50 ratio greater than or equal to 10 fold)	< 1000 nM
< 50 nM	< 100 nM	< 50 nM	< 50 nM	< 100 nM	COc1ncc(NC(=O)C(=O)N2C[C@@H](C)CC[C@@H]2c2ccc3sc([C@H]4CCN(C)C4)nc3c2)cc1C(N)=O (racemic) [Compound 1260, 2-methoxy-5-[[2-oxo-2-[rac-(2R,5S)-5-methyl-2-[2-[rac-(3S)-1-methylpyrrolidin-3-yl]-1,3-benzothiazol-5-yl]-1-piperidyl]acetyl]amino]pyridine-3-carboxamide]	A (an IC50 ratio greater than or equal to 10 fold)	< 1000 nM
< 50 nM	< 100 nM	< 50 nM	50 to 500 nM	100 to 1000 nM	CCc1cc(NC(=O)C(=O)N2C[C@@H](C)CC[C@@H]2c2ccc3c(c2)C(=O)N(C2CCN(C)CC2)C3)cnc1N (racemic) [Compound 1272, N-(6-amino-5-ethyl-3-pyridyl)-2-oxo-2-[rac-(2R,5S)-5-methyl-2-[2-(1-methyl-4-piperidyl)-3-oxo-isoindolin-5-yl]-1-piperidyl]acetamide]	A (an IC50 ratio greater than or equal to 10 fold)	< 1000 nM
< 50 nM	< 100 nM	< 50 nM	< 50 nM	< 100 nM	COc1ncc(NC(=O)C(=O)N2C[C@@H](C)CC[C@@H]2c2ccc3sc([C@@H]4CCN(C)C4)nc3c2)cc1C(N)=O (racemic) [Compound 1278, 2-methoxy-5-[[2-oxo-2-[rac-(2R,5S)-5-methyl-2-[2-[rac-(3R)-1-methylpyrrolidin-3-yl]-1,3-benzothiazol-5-yl]-1-piperidyl]acetyl]amino]pyridine-3-carboxamide]	A (an IC50 ratio greater than or equal to 10 fold)	< 1000 nM
< 50 nM	< 100 nM	50 to 500 nM	50 to 500 nM	100 to 1000 nM	COc1ncc(NC(=O)C(=O)N2C[C@@H](C)CC[C@@H]2c2ccc3sc(CCN(C)C)nc3c2)cc1C(N)=O (racemic) [Compound 1281, 5-[[2-[(2R,5S)-2-[2-[2-(dimethylamino)ethyl]-1,3-benzothiazol-5-yl]-5-methyl-1-piperidyl]-2-oxo-acetyl]amino]-2-methoxy-pyridine-3-carboxamide]	A (an IC50 ratio greater than or equal to 10 fold)	< 1000 nM
< 50 nM	< 100 nM	< 50 nM	50 to 500 nM	100 to 1000 nM	CCc1cc(NC(=O)C(=O)N2C[C@@H](C)CC[C@@H]2c2ccc(N3C[C@H]4CN(C)CC[C@H]4C3)cc2)cnc1N (racemic) [Compound 1287, N-(6-amino-5-ethyl-3-pyridyl)-2-oxo-2-[rac-(2R,5S)-5-methyl-2-[4-[rac-(3aR,7aR)-5-methyl-3,3a,4,6,7,7a-hexahydro-1H-pyrrolo[3,4-c]pyridin-2-yl]phenyl]-1-piperidyl]acetamide]	A (an IC50 ratio greater than or equal to 10 fold)	< 1000 nM
< 50 nM	< 100 nM	< 50 nM	< 50 nM	< 100 nM	CCc1cc(NC(=O)C(=O)N2C[C@@H](C)CC[C@@H]2c2ccc3cn(C4CC(C)(C)N(C)C(C)(C)C4)nc3c2)cnc1N (racemic) [Compound 1295, N-(6-Amino-5-ethyl-3-pyridyl)-2-oxo-2-[rac-(2R,5S)-5-methyl-2-[2-(1,2,2,6,6-pentamethyl-4-piperidyl)indazol-6-yl]-1-piperidyl]acetamide]	A (an IC50 ratio greater than or equal to 10 fold)	< 1000 nM
< 50 nM	< 100 nM	< 50 nM	< 50 nM	< 100 nM	COc1ncc(NC(=O)C(=O)N2C[C@@H](C)CC[C@@H]2c2ccc3cn(C4CCN(C)CC4)nc3c2)cc1C(N)=O (racemic) [Compound 1299, 2-Methoxy-5-[[2-oxo-2-[rac-(2R,5S)-5-methyl-2-[2-(1-methyl-4-piperidyl)indazol-6-yl]-1-piperidyl]acetyl]amino]pyridine-3-carboxamide]	B (an IC50 ratio greater than or equal to 3 fold but lower than 10 fold)	< 1000 nM
< 50 nM	< 100 nM	< 50 nM	50 to 500 nM	< 100 nM	CCc1cc(NC(=O)C(=O)N2C[C@@H](C)CC[C@@H]2c2ccc(OCCN(C)C)c(Cl)c2)cnc1N (racemic) [Compound 1305, N-(6-Amino-5-ethyl-3-pyridyl)-2-oxo-2-[rac-(2R,5S)-2-[3-chloro-4-[2-(dimethylamino)ethoxy]phenyl]-5-methyl-1-piperidyl]acetamide]	A (an IC50 ratio greater than or equal to 10 fold)	< 1000 nM
< 50 nM	< 100 nM	< 50 nM	50 to 500 nM	100 to 1000 nM	COc1ncc(NC(=O)C(=O)N2C[C@@H](C)CC[C@@H]2c2ccc3nn([C@H]4CCN(C)C4)cc3c2)cc1C(N)=O (racemic) [Compound 1318, 2-Methoxy-5-[[2-oxo-2-[rac-(2R,5S)-5-methyl-2-[2-[rac-(3S)-1-methylpyrrolidin-3-yl]indazol-5-yl]-1-piperidyl]acetyl]amino]pyridine-3-carboxamide]	A (an IC50 ratio greater than or equal to 10 fold)	< 1000 nM
50 to 500 nM	< 100 nM	50 to 500 nM	50 to 500 nM	> 1000 nM	CCc1cc(NC(=O)C(=O)N2C[C@@H](C)CC[C@@H]2c2ccc(N3CCOC4(CN(C)C4)C3)cc2)cnc1N (racemic) [Compound 1329, rac-N-(6-Amino-5-ethyl-3-pyridyl)-2-[(2R,5S)-5-methyl-2-[4-(2-methyl-5-oxa-2,8-diazaspiro[3.5]nonan-8-yl)phenyl]-1-piperidyl]-2-oxo-acetamide]		< 1000 nM
50 to 500 nM	< 100 nM	50 to 500 nM	50 to 500 nM	100 to 1000 nM	CCc1cc(NC(=O)C(=O)N2C[C@@H](C)[C@H](OC(C)C)C[C@@H]2c2ccc3scnc3c2)cnc1N (racemic) [Compound 1343, N-(6-Amino-5-ethyl-3-pyridyl)-2-[(2S,4S,5S)-2-(1,3-benzothiazol-5-yl)-4-isopropoxy-5-methyl-1-piperidyl]-2-oxo-acetamide]	A (an IC50 ratio greater than or equal to 10 fold)	< 1000 nM
